Measured values published in US20120252741A1, “NOVEL SEMI-SYNTHETIC GLYCOPEPTIDES AS ANTIBACTERIAL AGENTS” (priority 2008, published 2012).
In brackets after ≈: the same amount, converted by molar mass. Where two headings read alike, the source gives them in different places.

Assays:
Format in all cases: cell-based
[1] = test system: Staphylococcus epidermidis 835; assay: MIC, broth microdilution, SE 835
Description: (§1) Antibacterial activity in vitro is investigated by broth microdilution method in Meuller-Hinton broth as recommended by NCCLS. All strains tested are clinical isolates either sensitive or resistant to natural glycopeptides. MIC values were determined using the CLSI-recommended broth microdilution procedure (Clinical and Laboratory Standards Institute, Methods for Dilution Antimicrobial Susceptibility Tests for Bacteria That Grow Aerobically; Approved Standard-Seventh Edition.). Automated liquid handlers (Multidrop 384, Labsystems, Helsinki, Finland; Biomek 2000 and Multimek 96, Beckman Coulter, Fullerton Calif.) were used to conduct serial dilutions and liquid transfers. The MIC value for vancomycin is given for comparison. The abbreviations for organisms tested are as follow: SA 100—Staphylococcus aureus 100 (ATCC 29213); SA 757—Staphylococcus aureus 757 (MRSA); SA 2012—Staphylococcus aureus 2012 (VISA); SE 835—Staphylococcus epidermidis 835; SE 831—Staphylococcus epidermidis 831 (MRSE); EFc 101—Enterococcus faecalis 101 (ATCC 29212); EFc 848—Enterococcus faecalis 848 (VRE, Van A); EFcm 800—Enterococcus faecium 800; EFcm 752—Enterococcus faecium 752 (VRE, Van A); SPNE 1195—Streptococcus pneumoniae 1195 (ATCC 49619); SPY 712—Streptococcus pyogenes 712.

[2] = test system: Enterococcus faecalis 101 (ATCC 29212); assay: MIC, broth microdilution, EFc 101; details: for MIC: Enterococcus faecalis
Description: as §1

[3] = test system: Streptococcus pyogenes 712; assay: MIC, broth microdilution, SPY 712
Description: as §1

[4] = test system: Staphylococcus aureus 100 (ATCC 29213); assay: MIC, broth microdilution, SA 100; details: for MIC: Staphylococcus aureus
Description: as §1

[5] = test system: Enterococcus faecalis 848 (VRE, Van A); assay: MIC, broth microdilution, EFc 848; details: for MIC: read-out: MIC E FC 848
Description: as §1

[6] = test system: Staphylococcus aureus 2012 (VISA); assay: MIC, broth microdilution, SA 2012
Description: as §1

[7] = test system: Staphylococcus aureus 757 (MRSA); assay: MIC, broth microdilution, SA 757
Description: as §1

[8] = test system: Streptococcus pneumoniae 1195 (ATCC 49619); assay: MIC, broth microdilution, SPNE 1195; details: for MIC: Streptococcus pneumoniae
Description: as §1

[9] = test system: Enterococcus faecium 800; assay: MIC, broth microdilution, EFcm 800
Description: as §1

[10] = test system: Enterococcus faecium 752 (VRE, Van A); assay: MIC, broth microdilution, EFcm 752; details: for MIC: read-out: MIC E FCM 752
Description: as §1

[11] = test system: Staphylococcus epidermidis 831 (MRSE); assay: MIC, broth microdilution, SE 831; details: for MIC: Staphylococcus epidermidis, read-out: MIC SE 831
Description: as §1

[12] = Table 2, in the presence of 0.002% Polysorbate 80, numeric value, comparison
[13] = Table 2, VRE, Van A, in the presence of 0.002% Polysorbate 80, numeric value, comparison
[14] = Staphylococcus epidermidis, 835, Table 2, in the presence of 0.002% Polysorbate 80, class symbols, read-out: MIC SE 835
[15] = ATCC29212, Table 2, in the presence of 0.002% Polysorbate 80, class symbols, read-out: MIC E FC 101
[16] = Streptococcus pyogenes, 712, Table 2, in the presence of 0.002% Polysorbate 80, class symbols, read-out: MIC S PYO 712
[17] = ATCC29213, Table 2, in the presence of 0.002% Polysorbate 80, class symbols, read-out: MIC SA 100
[18] = Table 2, VRE, Van A, in the presence of 0.002% Polysorbate 80, class symbols
[19] = Table 2, in the presence of 0.002% Polysorbate 80, class symbols, read-out: MIC SA 2012
[20] = Table 2, in the presence of 0.002% Polysorbate 80, class symbols, read-out: MIC SA 757
[21] = ATCC49619, Table 2, in the presence of 0.002% Polysorbate 80, class symbols, read-out: MIC S PNE 1195
[22] = Enterococcus faecium, 800, Table 2, in the presence of 0.002% Polysorbate 80, class symbols, read-out: MIC E FCM 800
[23] = Table 2, in the presence of 0.002% Polysorbate 80, class symbols

CN[C@H](CC(C)C)C(=O)N[C@H]1C(=O)N[C@@H](CC(N)=O)C(=O)N[C@H]2C(=O)N[C@H]3C(=O)N[C@H](C(=O)N[C@H](C(=O)O)c4cc(O)cc(O)c4-c4cc3ccc4O)[C@H](O)c3ccc(c(Cl)c3)Oc3cc2cc(c3O[C@@H]2O[C@H](CO)[C@@H](O)[C@H](O)[C@H]2O[C@H]2C[C@](C)(N)[C@H](O)[C@H](C)O2)Oc2ccc(cc2Cl)[C@H]1O [Vancomycin, vancomycin, reference compound]
MIC ([1]; Staphylococcus epidermidis, 835, read-out: MIC SE 835, Table 1, numeric value, comparison): 4 µg/mL (≈ 2.76 µM)
MIC ([1]; Staphylococcus epidermidis, 835, read-out: MIC SE 835, Table 2, in the presence of 0.002% Polysorbate 80, numeric value, comparison): 2 µg/mL
MIC ([2]; ATCC29212, read-out: MIC E FC 101): 4 µg/mL (≈ 2.76 µM)
MIC E FC 101 [2, 12]: 4 µg/mL
MIC ([3]; Streptococcus pyogenes, 712, read-out: MIC S PYO 712): 0.5 µg/mL (≈ 0.345 µM)
MIC S PYO 712 [3, 12]: 0.5 µg/mL
MIC ([4]; ATCC29213, read-out: MIC SA 100): 1 µg/mL (≈ 0.69 µM)
MIC SA 100 [4, 12]: 1 µg/mL
MIC E FC 848 [5, 13]: >64 µg/mL
MIC [5]: > 64 µg/mL
MIC ([6]; read-out: MIC SA 2012, Table 1, numeric value, comparison): 8 µg/mL (≈ 5.52 µM)
MIC ([6]; read-out: MIC SA 2012, Table 2, in the presence of 0.002% Polysorbate 80, numeric value, comparison): 4 µg/mL
MIC ([7]; read-out: MIC SA 757, Table 1, numeric value, comparison): 1 µg/mL (≈ 0.69 µM)
MIC ([7]; read-out: MIC SA 757, Table 2, in the presence of 0.002% Polysorbate 80, numeric value, comparison): 2 µg/mL
MIC ([8]; ATCC49619, read-out: MIC S PNE 1195): 0.25 µg/mL (≈ 0.173 µM)
MIC S PNE 1195 [8, 12]: 0.25 µg/mL
MIC ([9]; Enterococcus faecium, 800, read-out: MIC E FCM 800): 1 µg/mL (≈ 0.69 µM)
MIC E FCM 800 [9, 12]: 1 µg/mL
MIC E FCM 752 [10, 13]: >64 µg/mL
MIC [10]: > 64 µg/mL
MIC [11]: 2 µg/mL (≈ 1.38 µM)
MIC SE 831 [11, 12]: 2 µg/mL

CCCCCCC(C)C(=O)NC(=O)C[C@@H]1NC(=O)[C@H](NC(=O)[C@@H](CC(C)C)NC)[C@H](O)c2ccc(c(Cl)c2)Oc2cc3cc(c2O[C@@H]2O[C@H](CO)[C@@H](O)[C@H](O)[C@H]2O[C@H]2C[C@](C)(N)[C@H](O)[C@H](C)O2)Oc2ccc(cc2Cl)[C@@H](O)[C@@H]2NC(=O)[C@H](NC(=O)[C@@H]3NC1=O)c1ccc(O)c(c1)-c1c(O)cc(O)cc1[C@@H](C(=O)NC1C3CC4CC(C3)CC1C4)NC2=O (some centres unmarked) [Compound 46]
MIC [1, 14]: 0.01 to 0.5 µg/mL
MIC [2, 15]: 0.01 to 0.5 µg/mL
MIC [3, 16]: 0.01 to 0.5 µg/mL
MIC [4, 17]: 0.01 to 0.5 µg/mL
MIC [5, 18]: 2 to 4 µg/mL
MIC [6, 19]: 2 to 4 µg/mL
MIC [7, 20]: 0.01 to 0.5 µg/mL
MIC [8, 21]: 0.01 to 0.5 µg/mL
MIC [9, 22]: 0.01 to 0.5 µg/mL
MIC [10, 18]: 0.01 to 0.5 µg/mL
MIC [11, 23]: 0.01 to 0.5 µg/mL

CNCCOc1ccc(C(=O)NC(=O)C[C@@H]2NC(=O)[C@H](NC(=O)[C@@H](CC(C)C)NC)[C@H](O)c3ccc(c(Cl)c3)Oc3cc4cc(c3O[C@@H]3O[C@H](CO)[C@@H](O)[C@H](O)[C@H]3O)Oc3ccc(cc3Cl)[C@@H](O)[C@@H]3NC(=O)[C@H](NC(=O)[C@@H]4NC2=O)c2ccc(O)c(c2)-c2c(O)cc(O)cc2[C@@H](C(=O)NC2C4CC5CC(C4)CC2C5)NC3=O)cc1OCCNC (some centres unmarked) [Compound 160]
MIC [1, 14]: 0.5 to 1 µg/mL
MIC [2, 15]: 0.5 to 1 µg/mL
MIC [3, 16]: 0.01 to 0.5 µg/mL
MIC [4, 17]: 1 to 2 µg/mL
MIC [5, 18]: > 16 µg/mL
MIC [6, 19]: 1 to 2 µg/mL
MIC [7, 20]: 1 to 2 µg/mL
MIC [8, 21]: 0.5 to 1 µg/mL
MIC [9, 22]: 0.01 to 0.5 µg/mL
MIC [10, 18]: 4 to 8 µg/mL
MIC [11, 23]: 0.01 to 0.5 µg/mL
